Source: ChEMBL document CHEMBL3822364, “Synthesis, characterization and antimicrobial activity of novel Schiff base tethered boronate esters of 1,2-O-isopropylidene-α-d-xylofuranose” (2016)
In brackets after ≈: the same amount, converted by molar mass.

Key:
Staphylococcus aureus [1] = assay: Antibacterial activity against Staphylococcus aureus MTCC 3160 assessed as zone of inhibition at 100 ug/well measured after 24 hrs by agar well diffusion method; type: functional; settings: MTCC 3160, 24 h, read-out: DIZ
Klebsiella pneumoniae [2] = assay: Antibacterial activity against Klebsiella pneumoniae MTCC 3384 assessed as zone of inhibition at 100 ug/well measured after 24 hrs by agar well diffusion method; type: functional; settings: MTCC 3384, 24 h, read-out: DIZ
Micrococcus luteus [3] = assay: Antibacterial activity against Micrococcus luteus MTCC 106 assessed as zone of inhibition at 100 ug/well measured after 24 hrs by agar well diffusion method; type: functional; settings: MTCC 106, 24 h, read-out: DIZ
Salmonella typhi [4] = assay: Antibacterial activity against Salmonella typhi measured after 24 hrs by NCCL protocol based broth dilution method; type: functional, Salmonella enterica subsp. enterica serovar Typhi; settings: Salmonella enterica
Streptococcus mutans [5] = assay: Antibacterial activity against Streptococcus mutans MTCC 497 assessed as zone of inhibition at 100 ug/well measured after 24 hrs by agar well diffusion method; type: functional; settings: MTCC 497, 24 h, read-out: DIZ
Aspergillus fumigatus [6] = assay: Antifungal activity against Aspergillus fumigatus MTCC 343 measured after 48 hrs by NCCL protocol based broth dilution method; type: functional; settings: MTCC 343, 48 h
Klebsiella pneumoniae [7] = assay: Antibacterial activity against Klebsiella pneumoniae MTCC 3384 measured after 24 hrs by NCCL protocol based broth dilution method; type: functional; settings: MTCC 3384, 24 h
Candida albicans [8] = assay: Antifungal activity against Candida albicans MTCC 3017 measured after 48 hrs by NCCL protocol based broth dilution method; type: functional; settings: MTCC 3017, 48 h
Salmonella paratyphi [9] = assay: Antibacterial activity against Salmonella paratyphi measured after 24 hrs by NCCL protocol based broth dilution method; type: functional, Salmonella enterica subsp. enterica serovar Paratyphi A; settings: Salmonella enterica
Aspergillus fumigatus [10] = assay: Antifungal activity against Aspergillus fumigatus MTCC 343 assessed as zone of inhibition at 100 ug/well measured after 48 hrs by agar well diffusion method; type: functional; settings: MTCC 343, 48 h, read-out: DIZ
Candida albicans [11] = assay: Antifungal activity against Candida albicans MTCC 3017 assessed as zone of inhibition at 100 ug/well measured after 48 hrs by agar well diffusion method; type: functional; settings: MTCC 3017, 48 h, read-out: DIZ
Salmonella typhi [12] = assay: Antibacterial activity against Salmonella typhi assessed as zone of inhibition at 100 ug/well measured after 24 hrs by agar well diffusion method; type: functional, Salmonella enterica subsp. enterica serovar Typhi; settings: Salmonella enterica, read-out: DIZ
Salmonella paratyphi [13] = assay: Antibacterial activity against Salmonella paratyphi assessed as zone of inhibition at 100 ug/well measured after 24 hrs by agar well diffusion method; type: functional, Salmonella enterica subsp. enterica serovar Paratyphi A; settings: Salmonella enterica, read-out: DIZ
Micrococcus luteus [14] = assay: Antibacterial activity against Micrococcus luteus MTCC 106 measured after 24 hrs by NCCL protocol based broth dilution method; type: functional; settings: MTCC 106, 24 h
Streptococcus mutans [15] = assay: Antibacterial activity against Streptococcus mutans MTCC 497 measured after 24 hrs by NCCL protocol based broth dilution method; type: functional; settings: MTCC 497, 24 h
Staphylococcus aureus [16] = assay: Antibacterial activity against Staphylococcus aureus MTCC 3160 measured after 24 hrs by NCCL protocol based broth dilution method; type: functional; settings: MTCC 3160, 24 h

Compound | zone of inhibition at 100 µg/disc (Staphylococcus aureus [1]) | zone of inhibition at 100 µg/disc (Klebsiella pneumoniae [2]) | zone of inhibition at 100 µg/disc (Micrococcus luteus [3]) | MIC (Salmonella typhi [4]) | zone of inhibition at 100 µg/disc (Streptococcus mutans [5]) | MIC (Aspergillus fumigatus [6]) | MIC (Klebsiella pneumoniae [7]) | MIC (Candida albicans [8]) | MIC (Salmonella paratyphi [9]) | zone of inhibition at 100 µg/disc (Aspergillus fumigatus [10]) | zone of inhibition at 100 µg/disc (Candida albicans [11]) | zone of inhibition at 100 µg/disc (Salmonella typhi [12]) | zone of inhibition at 100 µg/disc (Salmonella paratyphi [13]) | MIC (Micrococcus luteus [14]) | MIC (Streptococcus mutans [15]) | MIC (Staphylococcus aureus [16])
CC1(C)O[C@H]2O[C@@H]3COB(c4ccc(C=O)cc4)O[C@@H]3[C@H]2O1 | 12 mm | 20 mm | 12 mm | 31.2 µg/mL (≈ 103 µM) | 21 mm | 250 µg/mL (≈ 822 µM) | 62.5 µg/mL (≈ 206 µM) | 125 µg/mL (≈ 411 µM) | 31.2 µg/mL (≈ 103 µM) | 0 mm | 18 mm | 22 mm | 21 mm | 125 µg/mL (≈ 411 µM) | 62.5 µg/mL (≈ 206 µM) | 125 µg/mL (≈ 411 µM)
CC1(C)O[C@H]2O[C@@H]3COB(c4cccc(/N=C/c5ccc(Br)cc5O)c4)O[C@@H]3[C@H]2O1 | 13 mm | 12 mm | 21 mm | 31.2 µg/mL (≈ 65.9 µM) | 17 mm | 500 µg/mL (≈ 1050 µM) | 125 µg/mL (≈ 264 µM) | 125 µg/mL (≈ 264 µM) | 250 µg/mL (≈ 527 µM) | 0 mm | 17 mm | 24 mm | 14 mm | 62.5 µg/mL (≈ 132 µM) | 125 µg/mL (≈ 264 µM) | 250 µg/mL (≈ 527 µM)
CC1(C)O[C@H]2O[C@@H]3COB(c4cccc(/C=N/c5ccc(Br)cc5)c4)O[C@@H]3[C@H]2O1 | 13 mm | 18 mm | 14 mm | 31.2 µg/mL (≈ 68.2 µM) | 20 mm | 250 µg/mL (≈ 546 µM) | 62.5 µg/mL (≈ 136 µM) | 125 µg/mL (≈ 273 µM) | 62.5 µg/mL (≈ 136 µM) | 0 mm | 16 mm | 22 mm | 21 mm | 125 µg/mL (≈ 273 µM) | 62.5 µg/mL (≈ 136 µM) | 250 µg/mL (≈ 546 µM)
CC(C)c1ccc(/N=C/c2cccc(B3OC[C@H]4O[C@@H]5OC(C)(C)O[C@@H]5[C@H]4O3)c2)cc1 | 13 mm | 16 mm | 12 mm | 62.5 µg/mL (≈ 148 µM) | 16 mm | 500 µg/mL (≈ 1190 µM) | 125 µg/mL (≈ 297 µM) | 250 µg/mL (≈ 593 µM) | 125 µg/mL (≈ 297 µM) | 0 mm | 16 mm | 23 mm | 21 mm | 250 µg/mL (≈ 593 µM) | 125 µg/mL (≈ 297 µM) | 250 µg/mL (≈ 593 µM)
Cc1ccc(/N=C/c2cccc(B(O)O)c2)cc1 | 8 mm | 0 mm | 0 mm | 500 µg/mL (≈ 2090 µM) | 9 mm | 500 µg/mL (≈ 2090 µM) | 500 µg/mL (≈ 2090 µM) | 500 µg/mL (≈ 2090 µM) | 500 µg/mL (≈ 2090 µM) | 0 mm | 0 mm | 8 mm | 0 mm | 500 µg/mL (≈ 2090 µM) | 250 µg/mL (≈ 1050 µM) | 500 µg/mL (≈ 2090 µM)
CC1(C)O[C@H]2O[C@@H]3COB(c4ccc(/C=N/c5ccc(Cl)cc5)cc4)O[C@@H]3[C@H]2O1 | 16 mm | 24 mm | 13 mm | 62.5 µg/mL (≈ 151 µM) | 22 mm | 500 µg/mL (≈ 1210 µM) | 62.5 µg/mL (≈ 151 µM) | 250 µg/mL (≈ 604 µM) | 125 µg/mL (≈ 302 µM) | 0 mm | 11 mm | 22 mm | 13 mm | 125 µg/mL (≈ 302 µM) | 62.5 µg/mL (≈ 151 µM) | 125 µg/mL (≈ 302 µM)
CC1(C)O[C@H]2O[C@@H]3COB(c4cccc(/N=C/c5ccc6ccccc6c5O)c4)O[C@@H]3[C@H]2O1 | 13 mm | 19 mm | 17 mm | 62.5 µg/mL (≈ 140 µM) | 17 mm | 31.2 µg/mL (≈ 70.2 µM) | 62.5 µg/mL (≈ 140 µM) | 62.5 µg/mL (≈ 140 µM) | 125 µg/mL (≈ 281 µM) | 33 mm | 19 mm | 23 mm | 13 mm | 62.5 µg/mL (≈ 140 µM) | 125 µg/mL (≈ 281 µM) | 125 µg/mL (≈ 281 µM)
